Data from PubChem BioAssay (NCI).
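Values below derive from 48-hour exposures of cells grown in 96-well plates, with endpoints linearly interpolated between the two concentrations bracketing the appropriate inhibition level. Definition used: TGI = concentration required for complete inhibition of growth.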

How the values were obtained:
Assay in all cases: NCI tumour cell line growth inhibition, 48 h
786-0 renal = system: 786-0 renal
OVCAR-3 ovarian = system: OVCAR-3 ovarian
HCT-15 colon = system: HCT-15 colon
RPMI-8226 leukemia = system: RPMI-8226 leukemia
MDA-N = system: MDA-N
SK-OV-3 ovarian = system: SK-OV-3 ovarian
DU-145 prostate = system: DU-145 prostate
KM12 colon = system: KM12 colon
SNB-75 CNS = system: SNB-75 CNS
OVCAR-8 ovarian = system: OVCAR-8 ovarian
HS 578T breast = system: HS 578T breast
UO-31 renal = system: UO-31 renal
M14 melanoma = system: M14 melanoma
U251 CNS = system: U251 CNS
K-562 leukemia = system: K-562 leukemia
NCI-H522 lung = system: NCI-H522 lung
MCF7 breast = system: MCF7 breast
HT29 colon = system: HT29 colon
HCC-2998 colon = system: HCC-2998 colon

SMILES	TGI (786-0 renal)	TGI (OVCAR-3 ovarian)	TGI (HCT-15 colon)	TGI (RPMI-8226 leukemia)	TGI (MDA-N)	TGI (SK-OV-3 ovarian)	TGI (DU-145 prostate)	TGI (KM12 colon)	TGI (SNB-75 CNS)	TGI (OVCAR-8 ovarian)	TGI (HS 578T breast)	TGI (UO-31 renal)	TGI (M14 melanoma)	TGI (U251 CNS)	TGI (K-562 leukemia)	TGI (NCI-H522 lung)	TGI (MCF7 breast)	TGI (HT29 colon)	TGI (HCC-2998 colon)
CC(C)=CCNc1ncnc2nc[nH]c12	> 100 µM	> 100 µM	> 100 µM	> 100 µM	> 100 µM	> 100 µM	> 100 µM	> 100 µM	> 100 µM	> 100 µM	> 100 µM	> 100 µM	> 100 µM	> 100 µM	> 100 µM	> 100 µM	> 100 µM	> 100 µM	–
Cc1c(C)c2c(c(N)c1C#N)C(=O)N(Nc1ccccc1)C2=O	> 100 µM	> 100 µM	> 100 µM	> 100 µM	> 100 µM	–	> 100 µM	> 100 µM	> 100 µM	> 100 µM	> 100 µM	> 100 µM	> 100 µM	> 100 µM	> 100 µM	> 100 µM	> 100 µM	–	> 100 µM
COC(=O)c1ccccc1C1CN=NC12Cc1ccc(C)c(C)c1C2=O (stereo unspecified)	> 100 µM	> 100 µM	> 100 µM	–	> 100 µM	> 100 µM	> 100 µM	> 100 µM	> 100 µM	> 100 µM	> 100 µM	> 100 µM	> 100 µM	> 100 µM	> 100 µM	> 100 µM	> 100 µM	> 100 µM	> 100 µM
O=C(CC(C(=O)c1ccco1)c1ccsc1)c1ccco1 (stereo unspecified)	> 100 µM	> 100 µM	> 100 µM	> 100 µM	> 100 µM	> 100 µM	> 100 µM	> 100 µM	> 100 µM	> 100 µM	> 100 µM	> 100 µM	> 100 µM	> 100 µM	> 100 µM	> 100 µM	> 100 µM	> 100 µM	> 100 µM
CCCCc1c2c(nc3c1CCCC3O)CCCC2 (stereo unspecified)	> 100 µM	> 100 µM	> 100 µM	> 100 µM	> 100 µM	> 100 µM	> 100 µM	> 100 µM	> 100 µM	> 100 µM	> 100 µM	> 100 µM	> 100 µM	> 100 µM	> 100 µM	> 100 µM	> 100 µM	> 100 µM	> 100 µM
COc1cc(CNc2ccc3nc4n(c(=O)c3c2)CCCCC4)cc(OC)c1OC	> 100 µM	> 100 µM	> 100 µM	> 100 µM	> 100 µM	> 100 µM	> 100 µM	> 100 µM	> 100 µM	> 100 µM	> 100 µM	> 100 µM	> 100 µM	> 100 µM	> 100 µM	> 100 µM	> 100 µM	> 100 µM	–
CCN1CCN(c2ccc(Nc3ccnc4ccc5c(nnn5C)c34)cc2)CC1	15.9 µM	18.9 µM	16.4 µM	–	14.4 µM	32.2 µM	18.3 µM	12.4 µM	30.5 µM	40.8 µM	31.9 µM	25.7 µM	23.9 µM	19 µM	28.2 µM	6.21 µM	14.8 µM	72.4 µM	6.94 µM
COc1ccc(-c2c(=O)[nH]n3c(=S)nc(-c4ccccc4)[nH]c23)cc1OC	33.9 µM	–	41.6 µM	–	28.3 µM	55.9 µM	52.3 µM	35.8 µM	54 µM	50.4 µM	> 100 µM	33.8 µM	38 µM	58.5 µM	95 µM	37.9 µM	36.9 µM	48.8 µM	36.1 µM
O=C(NC(CS)C(=O)O)c1cccc2c(=O)c3ccccc3[nH]c12 (stereo unspecified)	> 100 µM	> 100 µM	> 100 µM	> 100 µM	> 100 µM	> 100 µM	> 100 µM	> 100 µM	> 100 µM	> 100 µM	> 100 µM	> 100 µM	> 100 µM	> 100 µM	> 100 µM	> 100 µM	> 100 µM	> 100 µM	–
Cn1nc2ccc3nccc(N4CCN(CCO)CC4)c3c2n1	> 100 µM	> 100 µM	> 100 µM	–	> 100 µM	> 100 µM	> 100 µM	> 100 µM	> 100 µM	> 100 µM	> 100 µM	> 100 µM	> 100 µM	> 100 µM	> 100 µM	> 100 µM	> 100 µM	> 100 µM	> 100 µM
Nc1c2c(=O)[nH]c(=O)c2c(N)c2c(=O)c3ccccc3c(=O)c12	10.9 µM	4.31 µM	3.19 µM	8.53 µM	0.448 µM	32.9 µM	3.95 µM	7.56 µM	–	5.82 µM	> 25.9 µM	31.1 µM	0.88 µM	> 90 µM	> 45.9 µM	13.5 µM	2.72 µM	2.83 µM	> 63.3 µM
Cc1nc2sc3ccccc3n2c(=O)c1N=Nc1ccc(Br)cc1	> 100 µM	> 100 µM	> 100 µM	> 100 µM	> 100 µM	> 100 µM	> 100 µM	> 100 µM	> 100 µM	> 100 µM	> 100 µM	–	> 100 µM	> 100 µM	> 100 µM	> 100 µM	> 100 µM	> 100 µM	–
Cc1ccc(NN=NCCCCN)cc1	> 100 µM	–	> 100 µM	> 100 µM	> 100 µM	> 100 µM	> 100 µM	> 100 µM	> 100 µM	> 100 µM	> 100 µM	> 100 µM	> 100 µM	–	–	> 100 µM	> 100 µM	> 100 µM	> 100 µM
[O-][n+]1onc2c1CCC(=N\O)/C2=N/Nc1ccccc1	> 100 µM	> 100 µM	> 100 µM	> 100 µM	> 100 µM	> 100 µM	> 100 µM	> 100 µM	> 100 µM	> 100 µM	> 100 µM	> 100 µM	> 100 µM	–	> 100 µM	> 100 µM	> 100 µM	> 100 µM	–
COc1cc(C)c2c(=O)c3ccccc3n(C)c2c1	> 100 µM	52.7 µM	> 100 µM	–	> 100 µM	> 100 µM	> 100 µM	> 100 µM	72.8 µM	78.8 µM	72.6 µM	–	60.8 µM	44.8 µM	39.1 µM	5.74 µM	> 100 µM	29 µM	> 100 µM
CCOP(=O)(CCCC(O)CNc1cc(Cl)nc(N)n1)OCC (stereo unspecified)	> 100 µM	> 100 µM	> 100 µM	> 100 µM	> 100 µM	> 100 µM	> 100 µM	> 100 µM	> 100 µM	> 100 µM	> 100 µM	> 100 µM	–	> 100 µM	> 100 µM	> 100 µM	> 100 µM	> 100 µM	> 100 µM
c1cc(Sc2nc(Sc3ccncc3)nc(Sc3ccncc3)n2)ccn1	> 100 µM	> 100 µM	> 100 µM	> 100 µM	> 100 µM	> 100 µM	> 100 µM	> 100 µM	–	> 100 µM	> 100 µM	> 100 µM	> 100 µM	> 100 µM	> 100 µM	> 100 µM	> 100 µM	> 100 µM	> 100 µM
CC(=O)Nc1ccc(NC(=O)c2c(Cl)c(Cl)c(Cl)c(Cl)c2-c2nc3ccccc3[nH]2)cc1	> 100 µM	> 100 µM	> 100 µM	71 µM	> 100 µM	> 100 µM	> 100 µM	> 100 µM	> 100 µM	> 100 µM	> 100 µM	> 100 µM	> 100 µM	–	> 100 µM	> 100 µM	> 100 µM	> 100 µM	> 100 µM
c1ccc2c(c1)nc1n2CCCn2ccnc2-1	> 100 µM	> 100 µM	> 100 µM	> 100 µM	> 100 µM	9.03 µM	> 100 µM	> 100 µM	> 100 µM	> 100 µM	> 100 µM	> 100 µM	> 100 µM	> 100 µM	> 100 µM	> 100 µM	> 100 µM	> 100 µM	–
CN(C)c1ccc(/C=c2/c3ccccc3n3nc4ccccc4c23)cc1	> 100 µM	> 100 µM	> 100 µM	39.1 µM	33.6 µM	> 100 µM	> 100 µM	> 100 µM	27.7 µM	> 100 µM	> 100 µM	> 100 µM	> 100 µM	> 100 µM	> 100 µM	31.9 µM	> 100 µM	> 100 µM	–
O=C1C=C(Sc2ccccc2)c2nccc3c2c1nc1ccccc13	49.6 µM	19.7 µM	26 µM	> 100 µM	33.3 µM	> 100 µM	> 100 µM	51.6 µM	> 100 µM	37.6 µM	46.5 µM	27.3 µM	31.7 µM	33.6 µM	–	15.8 µM	28.7 µM	26.8 µM	37.8 µM
N#Cc1c(O)c(N=Nc2ccccc2F)c(=O)n2c1[nH]c1ccccc12	> 100 µM	> 100 µM	> 100 µM	–	> 100 µM	> 100 µM	> 100 µM	–	> 100 µM	> 100 µM	65.4 µM	> 100 µM	> 100 µM	> 100 µM	> 100 µM	94.9 µM	> 100 µM	> 100 µM	> 100 µM
Cc1ccc(NC(=O)CSc2nc(C)nc3c2sc(=S)n3-c2ccccc2)cc1	6.92 µM	> 10 µM	> 10 µM	> 10 µM	> 10 µM	> 10 µM	> 10 µM	> 10 µM	4.84 µM	> 10 µM	6.3 µM	–	> 10 µM	> 10 µM	> 10 µM	> 10 µM	> 10 µM	> 10 µM	> 10 µM
COc1cc(NC(C)=O)ccc1C(=O)N/N=C/c1ccc(Cl)cc1Cl	64.4 µM	> 100 µM	> 100 µM	> 100 µM	72.7 µM	> 100 µM	> 100 µM	> 100 µM	36.5 µM	> 100 µM	> 100 µM	> 100 µM	> 100 µM	–	> 100 µM	> 100 µM	> 100 µM	> 100 µM	> 100 µM
CC(C)(C)c1cc(C2NCCO2)cc(C(C)(C)C)c1O (stereo unspecified)	> 100 µM	> 100 µM	> 100 µM	> 100 µM	> 100 µM	> 100 µM	> 100 µM	> 100 µM	30.6 µM	> 100 µM	> 100 µM	–	–	> 100 µM	> 100 µM	> 100 µM	> 100 µM	> 100 µM	–
O=C(O)CN1CCN2CCOCCOCCN(CC1)CCN(CC(=O)O)CC2	> 100 µM	> 100 µM	> 100 µM	> 100 µM	> 100 µM	> 100 µM	> 100 µM	> 100 µM	> 100 µM	> 100 µM	> 100 µM	> 100 µM	> 100 µM	> 100 µM	> 100 µM	> 100 µM	> 100 µM	> 100 µM	–
CCOC(=O)C(/C=N\C(=S)Nc1ccc(Cl)c(Cl)c1)=C(/O)c1ccccc1	> 100 µM	–	> 100 µM	–	> 100 µM	> 100 µM	> 100 µM	> 100 µM	55.9 µM	> 100 µM	10.5 µM	16.6 µM	> 100 µM	> 100 µM	–	26.1 µM	> 100 µM	> 100 µM	60.4 µM
